Residues, ends and D or L forms follow the SMILES beside them.
Columns and labels:
[1] = test system: L. infantum promastigotes; test: microbe, parasite or virus in culture; assay type: cell-based, Leishmania infantum; details: for growth inhibition: promastigotes, 72 h, 100 µM; for Selectivity index (CC50/IC50): CC50 in human umbilical vein endothelial cells / IC50 for promastigotes; for IC50: L. infantum promastigotes, in vitro
Experimental: L. infantum (MHOM/ES/2016/CATB101) promastigotes were maintained at 26°C in complete Schneider’s medium (Schneider’s insect medium supplemented with 10% FBS, 25 µg/mL gentamycin, 1% penicillin-streptomycin, and 1% sterile human urine, pH 6.7). For growth inhibition assays, promastigotes were used in the logarithmic growth phase, whereas for the infection of macrophages and generation of amastigotes they were used in the stationary phase. Axenic amastigotes were obtained following established protocols ([40], [57][–][59]); briefly, 1 × 10^7 promastigotes/mL in stationary phase were cultured in Schneider’s insect medium supplemented with 20% FBS, 25 µg/mL gentamycin, and 3.9 g/L of 2-(N-morpholino)ethanesulfonic acid, at pH 5.4 and 37°C. After 48 h, the typical rounded morphology of axenic amastigotes and their flagellum shortening could be observed. This culture was used within a week after its preparation.
In 96-well microtiter plates (Nunclon Delta surface; Thermo Fisher Scientific Inc.), serial dilutions (1:2) of the drugs or peptides were performed, either free or loaded in nanoformulations, in 100 µL of complete Schneider’s medium, to which one volume of 2 × 10^6 logarithmic growth-phase L. infantum promastigotes/mL in the same buffer was added. After 48 h, resazurin sodium salt was incorporated at a final concentration of 0.00125% and the plates were incubated at 26°C for another 24 h, when fluorescence from resorufin was measured as described above.

[2] = test system: promastigotes; set-up: method as in PMID 16316700; details: cited from earlier work
[3] = test system: L. infantum amastigotes; test: Amastigote growth inhibition assay (parasite rescue and transformation, RAW 264.7 macrophages); assay type: cell-based, Leishmania infantum; details: in vitro
Experimental: Compound activity on amastigotes was determined following the parasite rescue and transformation assay ([61]). RAW 264.7 macrophages were seeded in 96-well microtiter plates at 10^5 cells/mL of DMEM supplemented with 10% FBS and 1% penicillin-streptomycin (complete DMEM, DMEMc) in a final volume of 200 µL per well. After an overnight incubation (37°C, 5% CO2) to allow cell adherence, the medium was removed and 10^6 L. infantum promastigotes/mL were added (1:10 macrophage:promastigote ratio) in DMEM supplemented with 2% FBS and 1% penicillin-streptomycin (DMEM 2% FBS). After 24 h, parasites not internalized by macrophages were removed by washing (3×, PBS) and dilutions in DMEM 2% FBS of free or liposome-encapsulated compounds were added. After 48 h, the medium was removed, cells were washed three times with PBS, and 40 µL of 0.05% SDS in complete Schneider’s medium was added; after 40 s, 160 additional µL/well of complete Schneider’s medium was added and plates were incubated at 26°C for another 48 h. Then, resazurin sodium salt was incorporated at a final concentration of 0.00125% and plates were incubated for 24 h more in the same conditions. Afterwards, resorufin fluorescence was measured as above.

[4] = in vitro; assay type: cell-based; details: human umbilical vein endothelial cells; for CC50: 48 h
Experimental: Human umbilical vein endothelial cells were maintained in M-199 supplemented with 10% fetal bovine serum (FBS) and 1% penicillin-streptomycin at 37°C, 5% CO2, and seeded in 96-well plates at a density of 50,000 cells/mL. After allowing cell adherence for 24 h, the medium was removed, and drugs or nanoformulations were added in M-199 supplemented with 1% penicillin-streptomycin. Plates were incubated for 48 h, and then, the medium in each well was replaced by 100 µL of M-199 containing penicillin-streptomycin and 0.00125% resazurin sodium salt (Sigma-Aldrich Corporation). Plates were incubated for 4 h, and resorufin fluorescence emission was measured (λex/em: 535/590 nm) in a Tecan Infinite 200 PRO equipment (Tecan Trading AG).

[5] = Leishmania infantum, RAW264.7, L. infantum amastigotes in RAW 264.7 macrophages
[6] = L. infantum amastigotes in RAW 264.7 macrophages

SMILES	Selectivity index (CC50/IC50) [1]	IC50 ([1]; Leishmania infantum) [nM]	IC50 [3, 5] [nM]	CC50 [4] [nM]	IC50 [1] [nM]	IC50 [3, 6] [nM]	CC50 at 48 h [4] [nM]	further results
CC[C@H](C)[C@H](NC(=O)[C@H](C)NC(C)=O)C(=O)N[C@@H](CO)C(=O)N[C@H](C(=O)N[C@@H](Cc1ccccc1)C(=O)N[C@@H](Cc1ccccc1)C(=O)N[C@@H](CC(C)C)C(=O)N[C@@H](CCC(=O)O)C(=O)N1CCC[C@H]1C(N)=O)C(C)C (Ac-AISVFFLEP-NH2)								growth inhibition [1]: 0%
C[C@@H]1[C@H](O)[C@@H](C)/C=C/C=C/C=C/C=C/C=C/C=C/C=C/[C@H](O[C@@H]2O[C@H](C)[C@@H](O)[C@H](N)[C@@H]2O)C[C@@H]2O[C@](O)(C[C@@H](O)C[C@@H](O)[C@H](O)CC[C@@H](O)C[C@@H](O)CC(=O)O[C@H]1C)C[C@H](O)[C@H]2C(=O)O [Amphotericin B]								IC50 [2]: 40 nM
CC[C@H](C)[C@H](NC(=O)[C@H](Cc1ccccc1)NC(=O)[C@H](CC(N)=O)NC(=O)[C@H](CC(=O)O)NC(C)=O)C(=O)N[C@@H](Cc1ccccc1)C(=O)NCC(=O)N[C@@H](CCC(N)=O)C(N)=O [DNFIFGQ, Acetyl-DNFIFGQ-amide] (Ac-DNFIFGQ-NH2)								growth inhibition [1]: 2%
COc1cc2c(cc1OC)C(=O)C(CC1CCN(CCCNc3c4c(nc5cc(Cl)ccc35)CCCC4)CC1)C2 (stereo not drawn) [DONE3TCl]	6.0	2090 ± 400	620 ± 80	12600 ± 2200				
CC1=CC2Cc3nc4cc(Cl)ccc4c(NCCCCCCCNc4c5c(nc6ccccc46)CCCC5)c3C(C1)C2 (stereo not drawn) [HUP7TH]					1230 ± 420	920 ± 380	7800 ± 3400	
CC1=CC2Cc3nc4cc(Cl)ccc4c(NCCCCCCCCNc4c5c(nc6ccccc46)CCCC5)c3C(C1)C2 (stereo not drawn) [HUP8TH]	4.9	990 ± 470	1630 ± 340	4900 ± 1300				
CC1=CC2Cc3nc4ccccc4c(NCCCCCCCCCCNc4c5c(nc6ccccc46)CCCC5)c3C(C1)C2 (stereo not drawn) [HUPH10TH]					720 ± 110	970 ± 210	3400 ± 100	
CC1=CC2Cc3nc4cc(Cl)ccc4c(NCCCN(C)CCCNc4c5c(nc6cc(Cl)ccc46)CCCC5)c3C(C1)C2 (stereo not drawn) [HUPNTCl]	3.1	2030 ± 190	1040 ± 210	6300 ± 500				
CC1=CC2Cc3nc4cc(Cl)ccc4c(NCCCN(C)CCCNc4c5c(nc6ccccc46)CCCC5)c3C(C1)C2 (stereo not drawn) [HUPNTH]					2370 ± 1400	1520 ± 660	3400 ± 1000	
